Source: patent publication US6960594B2, “Thiophene and furan 2,5-dicarboxamides useful in the treatment of cancer” (Shire BioChem Inc., priority 1998, dated 2005)
“And” between values parts separate entries of the source, which are not always exact repeats. Equal values may be shown once.

Assays:
α5β1 = target: T1, α5β1 (Homo sapiens, UniProt P05556+P08648); experiment: Cell adhesion assay, K562 on fibronectin; type: cell-based; settings: K562 cells, adhesion to fibronectin, 1 hour
T1 construct: Cells HT29, K562, or K562 transfected with αvβ3; endogenous in cells; host or cells: K562
Method: The wells of 96-well plates (Immunolon) were coated, by incubation overnight at 4° C., with 5 ug/mL vitronectin, 2 ug/mL osteopontin, or fibronectin or 10 mg/mL BSA in PBS. The protein solution was flicked out and the wells were blocked with 10 mg/mL BSA (0.1 mL) for 1-2 hours at 37° C. Cells HT29, K562, or K562 transfected with αvβ3 (Blystone et al., 1994) were loaded with a fluorescent marker, 5-chloromethylfluorescein diacetate (Molecular Probes, Eugene, Oreg.) for 1 hour at 37° C., then incubated in fresh medium without the fluorescent marker for 1 hour. Cells were lifted with trypsin-EDTA and washed two times with Hank's balanced salt solution minus cations (Sigma) supplemented with 1 mM MgCl2 Cells (75,000 cells/well) were added to coated plates in triplicate and allowed to attach at 37° C. for 1 hour in the presence or absence of specific antibodies (5 ug/mL) or 10-fold dilutions of compounds of interest starting at 10 uM. Nonadherent cells were removed by gentle washing twice with PBS. The adherent cells were solubilized with 1% triton x-100 and detected using a fluorescence plate reader (DYNEX Technologies). The number of attached cells was calculated based upon standard curves for each cell line used in the experiment. Non-specific cell attachment (attachment to wells coated with BSA) was always less than 5%.

HT29 = experiment: Cell proliferation and cytotoxicity MTT assay, HT29; type: cell-based; settings: Homo sapiens, HT-29, 72 hours culture
Method: (§1) The wells of microtiter plates were seeded with 2000 cells/well T24, 2500 cells/well HT29 or 5000 cells/well HMVEC (Cell Systems) in 100 uL, followed by an overnight culture for cell adhesion. The next day, the media is supplemented with 100 uL of 10-fold dilution of compound of interest starting at 10 uM. Following culture for 72 hours, 3-(4,5-dimethyl-2-thiazolyl)-2,5-diphenyltetrazolium bromide (MTT; Sigma) at 2 mg/mL was added to each well (50 uL/well) and further incubated for 4 hours at 37° C. The medium was flicked out and 200 uL of a 1:1 solution of ethanol:acetone followed by 25 uL of glycine buffer (0.1 M glycine, 0.1M NaCl, pH 10.5) is added and the color measured by the absorbance at 570 nm.

[1] = tested on: Human non small-cell lung cancer cell line H460; experiment: Inhibition of metastasis in angiomouse/metamouse human lung cancer model of H460; type: in vivo, athymic BALB/c nude mice
Method: Male and female athymic BALB/c nude mice between 4 and 5 weeks of age were used. The animals were bred and maintained in an HEPA-filtered environment with cages, food and bedding sterilized by autoclaving. The breeding pairs were obtained from the Charles River Laboratories (Wilmington, Mass.). The animal diets were obtained from Harlan Teklab (Madison, Wis.). Ampicillin (Sigma, St Louis, Mo.) 5.0% (v/v) was added to the autoclaved drinking water.
Compound VII was tested and AGM-1470 (chloroacetyl-(3R,4S,5S,6R)-5-methoxy-4-[(2R,3R)-2-methyl-3-(3-methyl-2-butenyl)oxiranyl]-1-oxaspiro[2.5]oct-6-yl ester carbamic acid) was used as a positive control. [drawing 51] The compounds were dissolved using PEG400 with heating and sonicatin. The solutions were then diluted with saline to obtain the desired concentrations (30%/70%) and stored at −20° C.
Human non small-cell lung cancer cell line H460 with expression of green fluorescent protein was obtained from the National Cancer Institute. The cells were transfected with vectors carrying the green fluorescent protein (GFP) gene. The cell line was propagated by subcutaneous implantation in nude mice.
Test animals were transplanted by surgical orthotopic implantation (SOI) using fragments harvested from subcutaneaous tumor stock animals. The animals were anesthetized with isoflurane and the surgical area was sterilized using iodine solution and alcohol. A left thoracotomy was made along the 4th intercostal space using a pair of scissors. Two pieces of H460 tumor tissue of one cubic millimiter each were sutured to the left lung using an 8-0 nylon surgical suture. The thorax was closed using a sterile 6-0 silk suture. A sterile 3-cc syringe with a 25-gauge needle was used to remove the air and inflate the lung. All surgical and animal manipulations and procedures were conducted under HEPA-filtered laminar flow hoods.
Extra numbers of mice were transplanted to compensate for postsurgical losses. The orthotopically transplanted animals used were selected to establish groups of similar mean body weight. Groups for each of the cohort conditions wre randomly chosen. The cohort was grouped as follows. A total of 10 mice were used for each dosage regimen. Administration of test compounds and vehicle by subcutaneous injection was begun three days after the orthotopic implantation.
Two animals for each treatment group were sacrificed at day-14 after orthotopic implantation of H460. The remaining animals for each group were sacrificed at day-28 after implantation. The sacrificed animals were evaluated for primary and secondary tumors. Gross examination for distant metastasis was conducted at necropsy. Tissue samples of the primary tumor and those from relevant organs such as the lung, the liver and the lymph nodes wre processed through standards procedures of hematoxylin and eosin staining for subsequent microscopic examination.
The mediastinal lymph nodes, the liver and the lung in each animal were collected. The sampled tissues were sectioned and stained, then microscopically examined. The fisher-exact test was performed to compare distant metastasis to these organs in the treated and the controls. […]

HMVEC = experiment: Cell proliferation and cytotoxicity MTT assay, HMVEC; type: cell-based; settings: HMVEC, 72 hours culture
Method: as §1

[2] = Group C, 5 mg/kg SC 2 times/day

T1 sequence (P08648 42-894 limits assumed): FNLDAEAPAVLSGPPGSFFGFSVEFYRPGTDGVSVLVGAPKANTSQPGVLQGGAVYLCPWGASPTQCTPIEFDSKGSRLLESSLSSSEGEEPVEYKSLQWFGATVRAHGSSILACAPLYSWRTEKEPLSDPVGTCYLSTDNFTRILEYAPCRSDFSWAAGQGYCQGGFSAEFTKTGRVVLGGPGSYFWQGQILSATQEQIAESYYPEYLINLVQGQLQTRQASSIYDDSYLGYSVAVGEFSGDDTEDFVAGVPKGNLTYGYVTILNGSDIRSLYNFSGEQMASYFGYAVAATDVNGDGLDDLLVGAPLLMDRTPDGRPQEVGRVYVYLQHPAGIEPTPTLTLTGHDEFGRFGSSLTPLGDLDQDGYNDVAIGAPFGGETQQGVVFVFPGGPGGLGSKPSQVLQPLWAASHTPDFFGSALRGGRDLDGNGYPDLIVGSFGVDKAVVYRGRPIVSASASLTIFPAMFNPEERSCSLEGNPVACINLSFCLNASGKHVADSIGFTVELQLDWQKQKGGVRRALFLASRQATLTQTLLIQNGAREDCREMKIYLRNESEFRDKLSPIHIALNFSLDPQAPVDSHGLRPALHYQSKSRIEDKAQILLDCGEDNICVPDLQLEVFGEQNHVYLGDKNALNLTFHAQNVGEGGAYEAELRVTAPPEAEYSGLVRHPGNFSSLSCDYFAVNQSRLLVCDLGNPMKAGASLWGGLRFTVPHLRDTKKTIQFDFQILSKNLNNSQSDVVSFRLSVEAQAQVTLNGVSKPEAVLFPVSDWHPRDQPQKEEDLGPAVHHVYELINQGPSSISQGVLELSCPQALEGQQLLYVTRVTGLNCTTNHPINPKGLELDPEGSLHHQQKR
T1 sequence (P08648 895-1049 partner limits assumed): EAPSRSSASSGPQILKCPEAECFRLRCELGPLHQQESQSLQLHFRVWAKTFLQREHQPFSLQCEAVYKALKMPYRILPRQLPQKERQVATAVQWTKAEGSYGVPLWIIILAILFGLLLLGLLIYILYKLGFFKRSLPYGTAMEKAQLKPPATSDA
T1 sequence (P05556 21-798): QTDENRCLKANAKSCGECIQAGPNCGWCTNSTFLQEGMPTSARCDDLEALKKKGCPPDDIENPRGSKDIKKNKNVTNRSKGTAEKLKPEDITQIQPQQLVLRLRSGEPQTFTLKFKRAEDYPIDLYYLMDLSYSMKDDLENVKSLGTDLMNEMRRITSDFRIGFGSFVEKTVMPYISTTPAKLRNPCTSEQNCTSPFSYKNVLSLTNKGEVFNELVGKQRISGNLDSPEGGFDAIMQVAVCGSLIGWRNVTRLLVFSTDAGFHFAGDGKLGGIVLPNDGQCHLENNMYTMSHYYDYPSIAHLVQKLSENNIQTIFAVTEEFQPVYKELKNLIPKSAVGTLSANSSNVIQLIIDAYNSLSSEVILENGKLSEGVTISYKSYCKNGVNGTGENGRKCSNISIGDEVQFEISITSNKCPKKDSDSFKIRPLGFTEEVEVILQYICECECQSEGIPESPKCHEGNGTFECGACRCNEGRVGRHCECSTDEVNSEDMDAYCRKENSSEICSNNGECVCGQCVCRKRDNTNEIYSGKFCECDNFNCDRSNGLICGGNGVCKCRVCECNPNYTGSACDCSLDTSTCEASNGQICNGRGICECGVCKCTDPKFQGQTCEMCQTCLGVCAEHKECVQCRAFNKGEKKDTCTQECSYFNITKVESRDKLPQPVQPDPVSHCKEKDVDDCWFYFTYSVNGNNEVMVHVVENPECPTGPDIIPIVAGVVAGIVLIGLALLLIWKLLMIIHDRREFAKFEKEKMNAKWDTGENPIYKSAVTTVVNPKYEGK

`NCCCNC(=O)c1ccc(C(=O)NC(CC(=O)O)c2ccccc2)s1.O=C(O)C(F)(F)F` (stereo not shown) [Compound VII, 3-{[5-(3-Amino-propylcarbamoyl)-thiophene-2-carbonyl]-amino}-3-phenyl-propionic acid trifluoroacetic acid salt] was tested, and the IC50 (α5β1) was over 10 µM, the IC50 (HT29) was over 10 µM and the “Incidence of lung metastasis” value [1, 2] was 1/10. The “Incidence of lymph node metastasis” value [1, 2] was 2/10, the “Incidence of lymph node metastasis” value ([1]; Group D, 50 mg/kg SC 2 times/day) was 3/10 and the “Incidence of lung metastasis” value ([1]; Group D, 50 mg/kg SC 2 times/day, trifluoroacetic acid salt, 50 mg/kg) was “no lung metastasis and 0/10”. For the same compound, the IC50 (HMVEC) was over 10 µM.
